Data from publication PMC4641580 (ACS Medicinal Chemistry Letters, 2015).

Experiments:
human LYP = molecular target: T1, human LYP (Homo sapiens, UniProt Q9Y2R2); format: biochemical
T1 sequence (Q9Y2R2 1-807): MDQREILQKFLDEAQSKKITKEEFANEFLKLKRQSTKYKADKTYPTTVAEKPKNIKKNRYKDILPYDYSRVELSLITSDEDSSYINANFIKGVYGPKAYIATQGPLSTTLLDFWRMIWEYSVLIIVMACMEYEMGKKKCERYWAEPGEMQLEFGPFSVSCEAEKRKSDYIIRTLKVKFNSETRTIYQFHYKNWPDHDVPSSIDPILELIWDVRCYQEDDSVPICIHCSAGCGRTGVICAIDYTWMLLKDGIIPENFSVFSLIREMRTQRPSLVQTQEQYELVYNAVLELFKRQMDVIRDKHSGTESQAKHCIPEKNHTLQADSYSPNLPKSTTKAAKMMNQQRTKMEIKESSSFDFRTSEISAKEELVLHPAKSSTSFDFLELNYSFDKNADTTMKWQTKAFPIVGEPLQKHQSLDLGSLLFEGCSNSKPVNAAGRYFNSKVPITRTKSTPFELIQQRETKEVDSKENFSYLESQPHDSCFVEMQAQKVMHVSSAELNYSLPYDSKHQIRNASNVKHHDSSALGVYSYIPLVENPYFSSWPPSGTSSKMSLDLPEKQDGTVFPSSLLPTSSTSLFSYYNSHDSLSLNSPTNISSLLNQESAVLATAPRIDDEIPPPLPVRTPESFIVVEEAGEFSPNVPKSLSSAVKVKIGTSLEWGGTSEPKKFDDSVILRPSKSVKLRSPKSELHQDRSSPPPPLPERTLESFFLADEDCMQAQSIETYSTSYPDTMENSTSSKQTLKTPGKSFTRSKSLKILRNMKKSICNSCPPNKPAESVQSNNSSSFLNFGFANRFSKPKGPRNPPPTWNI

[1] = test system: Mycobacterium tuberculosis PtpB; format: biochemical; settings: read-out: IC50 PtpB
human PTP-PEST = molecular target: T2, human PTP-PEST (Homo sapiens, UniProt Q05209); format: biochemical
T2 sequence (Q05209 1-780): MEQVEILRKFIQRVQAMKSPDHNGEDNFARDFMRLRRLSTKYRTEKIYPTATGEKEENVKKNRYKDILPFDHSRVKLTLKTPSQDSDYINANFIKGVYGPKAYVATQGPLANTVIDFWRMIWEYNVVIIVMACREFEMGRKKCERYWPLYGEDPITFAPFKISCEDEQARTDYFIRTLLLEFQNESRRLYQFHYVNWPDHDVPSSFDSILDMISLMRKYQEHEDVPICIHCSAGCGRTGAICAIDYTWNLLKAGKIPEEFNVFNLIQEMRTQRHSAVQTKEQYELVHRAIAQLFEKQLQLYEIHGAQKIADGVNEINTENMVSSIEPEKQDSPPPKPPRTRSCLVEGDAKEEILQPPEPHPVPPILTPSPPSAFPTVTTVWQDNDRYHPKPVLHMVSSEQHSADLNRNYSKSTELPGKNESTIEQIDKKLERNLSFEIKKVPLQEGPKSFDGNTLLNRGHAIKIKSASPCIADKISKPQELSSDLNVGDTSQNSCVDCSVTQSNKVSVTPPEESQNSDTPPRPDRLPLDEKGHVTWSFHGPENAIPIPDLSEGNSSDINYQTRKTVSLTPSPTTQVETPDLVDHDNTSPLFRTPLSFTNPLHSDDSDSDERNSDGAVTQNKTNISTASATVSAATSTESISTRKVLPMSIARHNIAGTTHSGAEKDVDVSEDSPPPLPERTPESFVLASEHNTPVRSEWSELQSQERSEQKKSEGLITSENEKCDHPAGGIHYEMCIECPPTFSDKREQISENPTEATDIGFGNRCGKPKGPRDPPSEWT

human PTP1B = molecular target: T3, human PTP1B (Homo sapiens, UniProt P18031); format: biochemical
T3 sequence (P18031 1-435): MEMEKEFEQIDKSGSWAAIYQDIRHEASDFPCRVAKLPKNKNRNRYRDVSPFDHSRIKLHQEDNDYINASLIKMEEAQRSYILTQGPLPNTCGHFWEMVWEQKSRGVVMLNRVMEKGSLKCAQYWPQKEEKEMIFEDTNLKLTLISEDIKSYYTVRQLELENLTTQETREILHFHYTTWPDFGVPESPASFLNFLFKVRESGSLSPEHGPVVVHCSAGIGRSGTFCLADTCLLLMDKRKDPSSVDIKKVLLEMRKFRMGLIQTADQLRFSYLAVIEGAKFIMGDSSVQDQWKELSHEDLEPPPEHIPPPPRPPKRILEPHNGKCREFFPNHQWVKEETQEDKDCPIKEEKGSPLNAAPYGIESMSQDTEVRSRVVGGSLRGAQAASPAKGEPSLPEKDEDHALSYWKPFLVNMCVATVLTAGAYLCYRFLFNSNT

[2] = molecular target: Mycobacterium tuberculosis PtpA (Mycobacterium tuberculosis, UniProt P9WIA1)
YopH = YopH (Yersinia enterocolitica, UniProt P15273); format: biochemical; settings: read-out: Ki against YopH
Chain of YopH (P15273 whole entry, looked up): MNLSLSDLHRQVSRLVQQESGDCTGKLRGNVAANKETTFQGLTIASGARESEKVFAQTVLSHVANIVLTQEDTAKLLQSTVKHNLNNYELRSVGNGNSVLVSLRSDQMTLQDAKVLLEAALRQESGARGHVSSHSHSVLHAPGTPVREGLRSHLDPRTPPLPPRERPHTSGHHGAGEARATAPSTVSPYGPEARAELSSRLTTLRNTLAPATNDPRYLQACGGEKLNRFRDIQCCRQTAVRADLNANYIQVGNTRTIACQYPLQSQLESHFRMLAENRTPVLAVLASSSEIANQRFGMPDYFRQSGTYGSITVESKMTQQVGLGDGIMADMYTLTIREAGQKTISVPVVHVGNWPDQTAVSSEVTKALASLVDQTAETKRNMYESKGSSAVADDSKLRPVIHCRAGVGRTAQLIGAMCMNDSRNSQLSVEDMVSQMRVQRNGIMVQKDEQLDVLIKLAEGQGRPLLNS

Chain of Mycobacterium tuberculosis PtpA (P9WIA1 whole entry): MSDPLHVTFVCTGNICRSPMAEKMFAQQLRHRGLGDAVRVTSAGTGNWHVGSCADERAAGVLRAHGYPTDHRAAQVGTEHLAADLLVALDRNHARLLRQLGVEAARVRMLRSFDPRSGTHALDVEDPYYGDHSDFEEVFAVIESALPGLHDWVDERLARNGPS

With `[O]=[V]([S]c1cccc[n+]1[O-])[S]c1cccc[n+]1[O-]` [Compound 3, Bis(pyridine-2-thiol N-oxide) oxovanadium(IV)] the “SI (IC50PTP/IC50YopH) LYP” value (human LYP) was 97.6, the IC50 (human LYP; read-out: IC50 LYP) was 28.3 ± 1.71 µM and the IC50 [1] was 52.6 ± 1.56 µM. The “SI (IC50PTP/IC50YopH) PTP–PEST” value (human PTP-PEST) was 142.4, the IC50 (human PTP-PEST; read-out: IC50 PTP–PEST) was 41.3 ± 3.19 µM and the “SI (IC50PTP/IC50YopH) PTP1B” value (human PTP1B) was 2.7. For the same compound, the IC50 (human PTP1B; read-out: IC50 PTP1B) was 0.78 ± 0.02 µM, the “SI (IC50PTP/IC50YopH) PtpA” value [2] was 31.5 and the IC50 ([2]; read-out: IC50 PtpA) was 9.12 ± 0.26 µM. The Ki (YopH) was 0.19 µM.
